Data on ten compounds can be found in patent publication US7612107B2, “Treatment and inhibition of disease conditions using flexible heteroarotinoids” (The Board of Regents of the University of Oklahoma, priority 2005, dated 2009).

The test system of one series is OVCAR-3 xenograft tumors. Nature of the series: OVCAR-3 xenograft tumor growth model. The format is in vivo, mouse. The settings on record: 10 mg/kg/day by gavage, 5 days per week, 4 weeks. On the procedure:
Groups of 5 mice bearing OVCAR-3 xenografted tumors were gavaged daily with the indicated drugs in sesame oil (▪ closed square) or with sesame oil alone (∘ open circle). Tumor volumes were measured in 3 dimensions with calipers weekly. Each data point represents the average and standard error of the tumor volumes on the indicated treatment day relative to the tumor volume on day zero. Nu/nu mice were injected subcutaneously with one million OVCAR-3 cells and arbitrarily divided into five groups of six mice each. After three weeks of tumor growth, the animals were gavaged with sesame oil, 10 mg/kg/day 4-HPR, or the indicated Het five times per week for four weeks and the tumors were measured once per week. The tumor sizes were averaged and divided by the average size for each group on the day that treatment was initiated (day 0).
The OVCAR-3 cultures were maintained in RPMI media supplemented with 10% fetal bovine serum. All animal experimentation described in this manuscript was conducted in accord with accepted standards of humane animal care. Twenty-five female NU/NU CD-1 female mice (Charles Rivers Laboratories) were housed in a laminar flow room under sterile conditions at 83-85° F. The mice were quarantined for one week prior to the beginning of the study and were allowed access to autoclaved food (Purina 5001 mouse/rat sterilizable diet, St. Louis, Mo.) and water ad libitum. OVCAR-3 cells in log phase growth were harvested by trypsinization, resuspended in RPMI culture medium, and centrifuged at 3,000 rpm for 10 min. The pellets were resuspended in RPMI culture medium at a concentration of 7×10^6 cells/ml before implantation into mice. Animals were injected with 3.5×10^6 cells into the right scapular region with a 24-gauge needle/1 cc tuberculin syringe. Twenty-four hours after tumor implantation, animals were randomized into 5 groups of 5 animals each.
The Hets SHet50, SHetA2 and SHetA4 were synthesized and their receptor specificity determined as previously described (17,19). The 4-HPR compound was a gift from R.W. Johnson Pharmaceutical Research Institute, Raritan, N.J. All retinoids were dissolved in super refined sesame oil (Croda, Inc., Parsippany, N.J.) and stored at −80° C. Since the retinoids are light sensitive, all manipulations involving retinoids were performed under subdued lighting. […] Tumors were measured with calipers weekly, and tumor volumes were calculated using the formula: volume=length×width×height. Tumor growth was determined by the dividing the volume of the tumor at each weekly measurement by the volume on the first day of treatment. Animal weights and clinical signs of overall health status and cutaneous toxicities were recorded weekly.

For series [1], the system named is organotypic cultures of human ovarian cancer cell lines and primary cultures. Nature of the series: Ovarian carcinoma organotypic cultures (TUNEL, histology). Conditions: 1 μM retinoid in media. The format is cell-based. The procedure:
FIG. 17. Retinoid effects on ovarian carcinoma organotypic cultures. Organotypic cultures of OVCAR-3 (A, B, E, F, I and J), Caov-3 (C and G), SK-OV-3 (D and H), and O2 (K and L) were grown in the absence (−, top row and K) or presence (+, middle row and I, J and L) of retinoid HetA4 at a concentration of 1 μM in the media. All sections were stained with H&E except for […], which was stained with PAS to detect glycoproteins and glandular differentiation, and J, which was stained with the TUNEL assay to detect apoptosis. All magnifications are 40×.
To test our hypotheses, we evaluated the effects of clinically achievable concentrations of 4-HPR and Flex-Hets on growth, differentiation and apoptosis in ovarian tissue. A series of compounds with a variety of receptor activation profiles were evaluated. In order to evaluate therapeutic effects, we developed an organotypic culture model of ovarian tumors by growing established cell lines and primary cultures inside collagen gels. Monolayer cultures of cells are not accurate representations of in vivo tissue because they lack the types of interactions that cells have with other cells and with the extracellular matrix in vivo. These interactions are known to influence gene expression and thus the constitution and behavior of cells. In our organotypic model, the growth of tumor cells inside the collagen allows a representation of tumors that have invaded stromal tissue. In the presence of fibroblasts, established cell lines and primary cultures of ovarian cancer formed colonies inside the collagen, while normal or benign ovarian epithelial cells remained as single cells inside the collagen. Human ovarian cancer cell lines (OVCAR-3, Caov-3, SK-OV-3, A2780, UCI 101) and primary human cultures (borderline ovarian tumor (O1), serous papillary tumor (O2), benign ovarian cyst (O3)) were cultured inside and on top of a collagen gel seeded with 3T3 fibroblasts for one week. After further incubation in the presence or absence of 1 μM retinoid (media concentration) for 3, 7 or 14 days, cultures were fixed and sectioned for immunohistochemical analysis.
The TUNEL assay was used to evaluate apoptosis in fixed, paraffin embedded, cut sections of the treated and control cultures (FIG. 17). […] These two cellular outcomes appeared to be mutually exclusive.

A further series concerns Raldh2-/- embryos. The settings on record: for No. of −/− rescued / No. of −/− unrescued: E10.25; for Teratogenesis: mouse, in vivo, po. The procedure: Briefly, retinoids were dissolved in corn oil and administered orally to timed-pregnant Raldh2_/_mice at 12-h intervals on E7.25, E7.75, and E8.25. Dosages varied from 0.025 to 25 mg/kg. At E10.25, embryos were analyzed morphologically to determine whether Raldh2_/_embryos were rescued or whether wild-type embryos had suffered teratogenesis. Detection of embryonic RA was performed in situ in embryos carrying the RARE-lacZ RA-reporter gene by staining for beta-galactosidase activity for 10 h (45).
A mouse model that lacks retinaldehyde dehydrogenase (Raldh2) due to null mutations was used to test the ability of Flex-Hets to substitute for retinoic acid (RA) and induce birth defects. […] We examined the relative ability of all-trans-RA, 9-cis-RA, receptor-specific synthetic retinoids and retinoic acid receptor independent Flex-Hets to rescue the Raldh2_/_embryonic lethal phenotype.

For another series, the system named is dorsal skin. Put plainly: Topical irritancy in Skh hairless mice. The format is in vivo. On the procedure: Female Skh hairless mice, 6-8 weeks old, were treated topically on the dorsal skin for 4 days over a 2-log concentration dose range with various compounds. Retinoic acid receptor-Hets were evaluated in A, while retinoic acid receptor-independent Flex-Hets were evaluated in B. Daily flaking and abrasion scores were combined to calculate a single cutaneous toxicity score for each mouse. Each treatment group consisted of 4 mice, and group averages were used to plot cutaneous toxicity against doses of the compounds.
Topical irritancy was evaluated according to published procedures (29). Briefly, female Skh hairless mice, 6-8 weeks old, were treated topically on the dorsal skin for 4 days over a 2-log concentration dose range with various compounds. Daily flaking and abrasion scores were combined to calculate a single cutaneous toxicity score for each mouse. Each treatment group consists of 4 mice, and group averages are used to plot cutaneous toxicity against dose of the retinoid compound.

Series [2] concerns human polycystic kidney disease cells. Nature of the series: 3-D model of polycystic kidney disease, cyst formation. The settings on record: 4 μM, 3 weeks. The format is cell-based. The procedure: FIG. 21. Effects of Flex-Hets on formation of cysts in cultured polycystic kidney disease cells. A primary culture of polycystic kidney cells were grown inside a mixture of collagen I and matrigel and treated with prostaglandin E2 to induce cyst formation. Parallel cultures were treated with 10 micromolar SHetA3 and SHetA4.
The 3-D model of the PKD was developed as described here. Single-cell suspensions of the PCKD cell lines was re-suspended in a 4° C. solution mixture containing rat tail collagen I (Collaborative Biomedical Products, Bedford, Mass.), matrigel (Becton Dickinson) and MEM. The suspension was poured into Falcon cell culture inserts with transparent membranes containing 0.4 μm pores (Becton Dickinson, Franklin Lakes, N.J.) and placed at 37° C. Treatment of cultures was initiated after 1 day of growth and replenished with medium once in every two days. Drugs (Flex-Hets at 4 μM Conc.) and hormones (PGE2 at 25 ng/ml) were administered into the medium surrounding the insert. Untreated control cultures were grown in the same conditions as that of the treated cultures. Drug treatment was carried out for 3 weeks before their effects on growth and inhibition were evaluated.

The conditions of series [3]: more potent than RA; cited from earlier work.
Setting [4] is: topical, dorsal skin, 4 days, 2-log dose range.

The structures appear in SMILES notation. Where two headings read alike, the source gives them in different places.

As for `CC1=C(/C=C/C(C)=C/C=C/C(C)=C/C(=O)Nc2ccc(O)cc2)C(C)(C)CCC1` [4-HPR, reference compound], the “Growth of xenograft tumors versus sesame oil control” value in the series on OVCAR-3 xenograft tumors is on record as “significantly inhibited the growth”. The “Induction of apoptosis (TUNEL) in organotypic cultures” value (“Induction of apoptosis (TUNEL)” for short) in series [1] was “Apoptosis was induced”.
In the case of `CC1=C(/C=C/C(C)=C\C=C\C(C)=C\C(=O)O)C(C)(C)CCC1` [9-cis-RA], the figures for the “No. of −/− rescued” value in the series with Raldh2-/- embryos (Dose 2.5 mg/kg oral) and in the series with Raldh2-/- embryos (Dose 10 mg/kg oral) were 2 and 6, respectively. The entries for the “No. of −/− unrescued” value with Raldh2-/- embryos (Dose 2.5 mg/kg oral) and in the series on Raldh2-/- embryos (Dose 10 mg/kg oral) were 8 and 1, respectively. For the same compound, the Teratogenesis with Raldh2-/- embryos (2.5 mg/kg) and in the series with Raldh2-/- embryos (10 mg/kg) was 0 each time. Moreover, in series [1], the “Induction of apoptosis (TUNEL)” value is “Apoptosis was induced”.
Consider `CC1=C(/C=C/C(C)=C/C=C/C(C)=C/C(=O)O)C(C)(C)CCC1` [All-trans-RA], for which the “No. of −/− rescued” value is 0 in the series with Raldh2-/- embryos (Dose 1.0 mg/kg oral) and 13 with Raldh2-/- embryos (Dose 2.5 mg/kg oral). Besides, the results for the “No. of −/− unrescued” value in the series on Raldh2-/- embryos (Dose 1.0 mg/kg oral) and with Raldh2-/- embryos (Dose 2.5 mg/kg oral) were 7 and 1, respectively. In addition, the Teratogenesis with Raldh2-/- embryos (1 mg/kg) and with Raldh2-/- embryos (2.5 mg/kg) was 0 each time.
For `CCOC(=O)c1ccc(OC(=O)c2ccc3c(c2)C(C)(C)CCN3C(C)C)cc1` [NHet17], the “Topical irritancy (cutaneous toxicity score)” value (from here on “Topical irritancy”) in the series with dorsal skin (setting [4]) was “induced topical irritancy scores in a dose-responsive manner”.
Regarding `CC1(C)CCOc2ccc(C(=O)Oc3ccc(C=NNC(N)=S)cc3)cc21` [OHet72], in the series with dorsal skin (mouse, in vivo), the “Topical irritancy” value is recorded as “did not induce topical irritancy”. Moreover, the “Rescue of Raldh2−/− embryos (in words)” value in the series with Raldh2-/- embryos (2.5 mg/kg) and in the series on Raldh2-/- embryos (10 or 25 mg/kg) was “no rescue” throughout. Besides, the “No. of −/− rescued” value with Raldh2-/- embryos (Dose 2.5 mg/kg oral), in the series on Raldh2-/- embryos (Dose 10 mg/kg oral) and in the series on Raldh2-/- embryos (Dose 25 mg/kg oral) was 0 each time. For the same compound, the entries for the “No. of −/− unrescued” value in the series on Raldh2-/- embryos (Dose 2.5 mg/kg oral), in the series on Raldh2-/- embryos (Dose 10 mg/kg oral) and in the series on Raldh2-/- embryos (Dose 25 mg/kg oral) were 4, 3 and 5, respectively. Besides, the Teratogenesis in the series with Raldh2-/- embryos (2.5 mg/kg), with Raldh2-/- embryos (10 mg/kg) and in the series on Raldh2-/- embryos (25 mg/kg) was 0 each time.
`COC(=O)c1ccc(C(=O)Nc2ccc3c(c2)C(C)(C)CC(C)(C)S3)cc1` [SHet50, reference compound]: the “Growth of xenograft tumors versus sesame oil control” value in the series on OVCAR-3 xenograft tumors is listed as “significantly inhibited the growth”. In addition, the “Induction of apoptosis (TUNEL)” value in series [1] is given as “Apoptosis was induced”.
In the case of `CC(C=CC=C(C)c1ccc2c(c1)C(C)(C)CS2)=CC(=O)O` [SHet65], the “Topical irritancy” value in the series with dorsal skin (setting [4]) was “induced topical irritancy scores in a dose-responsive manner”.
As to `CC(Cc1ccc(C(=O)O)cc1)c1ccc2c(c1)C(C)(C)CS2` (stereo not drawn) [SHet100], the “Rescue of Raldh2−/− embryos (in words)” value in the series on Raldh2-/- embryos (0.5 mg/kg) is recorded as “typical rescue phenotype”. In addition, the “No. of −/− rescued” value with Raldh2-/- embryos (Dose 0.025 mg/kg oral) is 0; with Raldh2-/- embryos (Dose 0.25 mg/kg oral), 2; in the series on Raldh2-/- embryos (Dose 0.5 mg/kg oral), 6. Besides, the “No. of −/− unrescued” value with Raldh2-/- embryos (Dose 0.025 mg/kg oral) is on record as 2; with Raldh2-/- embryos (Dose 0.25 mg/kg oral), 0; in the series with Raldh2-/- embryos (Dose 0.5 mg/kg oral), 1. For the same compound, the Teratogenesis stood at 0 in the series on Raldh2-/- embryos (0.025 mg/kg), 0 with Raldh2-/- embryos (0.25 mg/kg), 0 in the series on Raldh2-/- embryos (0.5 mg/kg) and 11 in the series on Raldh2-/- embryos (2.5 mg/kg).
For the compound `CCOC(=O)c1ccc(NC(=O)Nc2ccc3c(c2)C(C)(C)CC(C)(C)S3)cc1` [SHetA4], in the series on OVCAR-3 xenograft tumors, the “Growth of xenograft tumors versus sesame oil control” value was “significantly inhibited the growth”. The “Topical irritancy” value with dorsal skin (mouse, in vivo) is “did not induce topical irritancy”. Also, the “Induction of apoptosis (TUNEL)” value in series [1] is given as “Apoptosis was induced”. The “Differentiated phenotype (tubular structures)” value in series [2] is on record as “induced the formation of several branched tubular structures”. For the same compound, the Cyst formation result in series [2] (PGE2 25 ng/ml) was “completely eliminated cyst formation”.
For the compound `C/C(=C\c1ccc(C(=O)O)cc1)c1ccc2c(c1)C(C)(C)CCC2(C)C` [TTNPB], the “Potency relative to RA” value in series [3] was 10 fold.
